Measured values as given in patent publication US20250034515A1, “Method of Production of Organoids and Uses Thereof” (Université de Strasbourg, priority 2021, published 2025).

Tested on: Aspc-1 cells
Test: Viability of pancreatic cancerous 3D organoids in liquid pearls (Calcein-AM / propidium iodide, Celigo image cytometry)
Type: cell-based, human
Conditions: AsPC-1 organoids in liquid pearls; Gemcitabine 80 μM
Procedure: FIG. 4. Effects of an ethanolic plant extract on 3D cultured cells viability. Pancreatic cancer cells seeded at 10^5 cells/mL were injected and grown in liquid pearls at a volume of 150 μL for 24 hours, then exposed to ethanolic extract #138-10D (80 μg/ml), vehicle or Gemcitabine (80 μM). After 24 hours of incubation, the cells were labeled (Calcein-AM=green-living cells and propidium iodide=red-dead cells). The composite image of the two channels was analyzed by imaging cytometry.
In a first step, medium filling the pearls is prepared using DMEMhigh glucose complete medium supplemented by 1.2% of methylcellulose solution (MC) at a ratio of 4 to 1. For spheroid generation, 150 μL of pearls medium were dispensed onto fumed silica-coated 6-well plates, then Aspc-1 cells, at a density of 10,000 cells/mL, were directly injected into each pearl. The injected pearls were then incubated in a humidified incubator at 37 C° and 5% CO2.
After 24 hours, 50 μL of complete medium containing the different extracts (final concentration 80 μg/mL) were injected into each pearl and incubated for an additional 48 hours. […] Pearls containing cancerous organoids were finally analyzed on Celigo image cytometer (Cyntellect Inc, San Diego, CA, USA).

Nc1ccn([C@@H]2O[C@H](CO)[C@@H](O)C2(F)F)c(=O)n1 [Gemcitabine]
activity on AsPC-1 cells (3D cultured cells viability): only active on AsPC-1 cells at a concentration of 80 μM
